Results on seven compounds are retold here after US20040077687A1, “Thiazolmines and their use as tgf-beta inhibitors” (priority 2003, published 2004).

Data set [1] deals with TGF-β signalling (PAI-1 promoter luciferase reporter in HepG2 cells). Description: Assay 1: PAI-1 promoter firefly luciferase reporter in HepG2 cells exposed to TGF-β. The conditions noted are these: for IC50: Homo sapiens, HepG2, read-out: IC50 value in Assay 1.
Method: The assay was performed in HepG2 cells stably transfected with the PAI-1 promoter (known to be a strong TGF-β responsive promoter) linked to a luciferase (firefly) reporter gene. The compounds were selected on their ability to inhibit luciferase activity in cells exposed to TGF-β. In addition cells were transfected with a second luciferase (Renilla) gene which was not driven by a TGF-β responsive promoter and was used as a toxicity control.
(96 well-)microplates are seeded, using a multidrop apparatus, with the stably transfected cell line at a concentration of 35000 cells per well in 200 μl of serum-containing medium. These plates are placed in a cell incubator.
18 to 24 hours later (Day 2), cell-incubation procedure is launched. Cells are incubated with TGF-β and a candidate compound (TGF-β inhibitor) at concentrations in the range 50 nM to 10 μM (final concentration of DMSO 1%). The final concentration of TGF-β (rhTGFβ1) used in the test is 1 ng/mL. […] The final volume of the test reaction is 150 μl. Each well contains only one candidate compound and its effect on the PAI-1 promoter is monitored.
Columns 11 and 12 are employed as controls. Column 11 contains 8 wells in which the cells are incubated in the presence of TGF-β, without a candidate compound. Column 11 is used to determine the ‘reference TGF-β induced firefly luciferase value’ against which values measured in the test wells (to quantify inhibitory activity) may be compared. In wells A12 to D12, cells are grown in medium without TGF-β. The firefly luciferase values obtained from these positions are representive of the ‘basal firefly luciferase activity’. In wells E12 to H12, cells are incubated in the presence of TGF-β and 500 μM CPO (Cyclopentenone, Sigma), a cell toxic compound.
12 to 18 hours later (day 3), the luciferase quantification procedure is launched. The following reactions are performed using reagents obtained from a Dual Luciferase Assay Kit (Promega). Cells are washed and lysed with the addition of 10 μl of passive lysis buffer (Promega). Following agitation (15 to 30 mins), luciferase activities of the plates are read in a dual-injector luminometer (BMG lumistar). For this purpose, 50 μl of luciferase assay reagent and 50 μl of ‘Stop & Glo’ buffer are injected sequentially to quantify the activities of both luciferases. The mean Luciferase activity value obtained in wells A11 to H11 (Column 11, TGF-βonly) is considered to represent 100% and values obtained in wells A12 to D12 (cells in medium alone) give a basal level (0%). For each of the compounds tested, a concentration response curve is constructed from which an IC50 value can be determined graphically.

Regarding `CCc1ccc(-c2cc(-c3sc(N)nc3-c3ccccn3)ccn2)cc1` [Example 4, 5-[2-(4-Ethylphenyl)pyridin-4-yl]-4-pyridin-2-yl-1,3-thiazol-2-amine], the melting point is 238 °C. Further, in data set [1], the IC50 was no more than 5 µM. With `O=C1C=CCC1` [CPO, Cyclopentenone, reference compound], the “firefly and renilla luciferase activities relative to column 11 (TGF-β only); toxicity control” value in data set [1] (500 μM CPO in the presence of TGF-β, HepG2 reporter cells) was “around 50%”.

As for `Nc1nc(-c2ccccn2)c(-c2ccnc(-c3ccsc3)c2)s1` [Example 6, 5-[2-(Thiophen-3-yl)pyridin-4-yl]-4-pyridin-2-yl-1,3-thiazol-2-amine], the melting point was 244 °C. In addition, the half-inhibitory concentration (IC50) in data set [1] is no more than 5 µM.

In turn, `COc1ccc(-c2cc(-c3sc(N)nc3-c3ccccn3)ccn2)cc1` [Example 2, 5-[2-(4-Methoxyphenyl)pyridin-4-yl]-4-pyridin-2-yl-1,3-thiazol-2-amine] came in with a melting point of 222 °C. In addition, the IC50 in data set [1] is no more than 5 µM. The compound `Nc1nc(-c2ccccn2)c(-c2ccnc(-c3ccc(F)cc3)c2)s1` [Example 3, 5-[2-(4-Fluorophenyl)pyridin-4-yl]-4-pyridin-2-yl-1,3-thiazol-2-amine] gave a melting point of 250 °C. In addition, the IC50 in data set [1] is no more than 5 µM. In the same order, the values of `Nc1nc(-c2ccccn2)c(-c2ccnc(-c3ccc(Cl)cc3)c2)s1` [Example 1, 5-[2-(4-Chlorophenyl)pyridin-4-yl]-4-pyridin-2-yl-1,3-thiazol-2-amine] are 256 to 257 °C and no more than 5 µM. The compound `CCOc1ccc(-c2cc(-c3sc(N)nc3-c3ccccn3)ccn2)cc1` [Example 5, 5-[2-(4-Ethoxyphenyl)pyridin-4-yl]-4-pyridin-2-yl-1,3-thiazol-2-amine] gave a melting point of 246 °C. Also, the IC50 in data set [1] was no more than 5 µM.
